Data: ChEMBL document CHEMBL6087488, “Development of the First-in-Class FEM1B-Recruiting Histone Deacetylase Degraders” (J Med Chem, 2025)
Calls of active or inactive are those of the source. The rule behind the calls is not given here.

Legend:
MM1.S [1] = assay: Antiproliferative activity against human MM1.S cells assessed as cell viability up to 50 uM measured after 72 hrs by CellTiter-Glo cell viability assay; format: functional, cell-based
MV4-11 = assay: Antiproliferative activity against human MV4-11 cells assessed as cell viability measured after 72 hrs incubation by MTT assay; format: functional, cell-based; details: MV4-11, 72 h
MDA-MB-231 [2] = assay: Antiproliferative activity against human MDA-MB-231 cells assessed as cell viability up to 50 uM measured after 72 hrs incubation by MTT assay relative to control; format: functional
U-87 MG [3] = assay: Antiproliferative activity against human U-87 MG cells assessed as cell viability up to 50 uM measured after 72 hrs incubation by MTT assay relative to control; format: functional, U-87MG ATCC
MM1.S [4] = assay: Induction of cell cycle arrest in human MM1.S cells assessed as reduction in cells at […] phase at 10 uM measured after 48 hrs by propidium iodide based flow cytometry; format: functional
MM1.S [5] = assay: Induction of cell cycle arrest in human MM1.s cells assessed as increase in cells at Sub-G1 phase at 10 uM measured after 48 hrs by propidium iodide based flow cytometry; format: functional
MM1.S [6] = assay: Induction of apoptosis in human MM1.S cells assessed as increase in early apoptotic cells at 10 uM measured after 48 hrs by annexin V-FITC/PI staining based assay; format: functional, cell-based
MM1.S [7] = assay: Induction of apoptosis in human MM1.S cells assessed as increase in late apoptotic cells at 10 uM measured after 48 hrs by annexin V-FITC/PI staining based assay; format: functional, cell-based
MM1.S [8] = assay: Antiproliferative activity against human MM1.S cells assessed as cell viability up to 50 uM measured after 72 hrs incubation by MTT assay; format: functional
MM1.S [9] = assay: Antiproliferative activity against human MM1.S cells assessed as cell viability measured after 72 hrs by CellTiter-Glo cell viability assay; format: functional, cell-based
[10] = target: T1, Protein fem-1 homolog B/Histone deacetylase 1 (Homo sapiens, UniProt Q13547+Q9UK73); assay: PROTAC activity at FEM1B/HDAC1 in human MM1.S cell lysate assessed as initial degradation at 1 uM measured after 24 hrs by Western immunoassay; format: subcellular
Target sequence in this assay (Q13547 whole entry, looked up): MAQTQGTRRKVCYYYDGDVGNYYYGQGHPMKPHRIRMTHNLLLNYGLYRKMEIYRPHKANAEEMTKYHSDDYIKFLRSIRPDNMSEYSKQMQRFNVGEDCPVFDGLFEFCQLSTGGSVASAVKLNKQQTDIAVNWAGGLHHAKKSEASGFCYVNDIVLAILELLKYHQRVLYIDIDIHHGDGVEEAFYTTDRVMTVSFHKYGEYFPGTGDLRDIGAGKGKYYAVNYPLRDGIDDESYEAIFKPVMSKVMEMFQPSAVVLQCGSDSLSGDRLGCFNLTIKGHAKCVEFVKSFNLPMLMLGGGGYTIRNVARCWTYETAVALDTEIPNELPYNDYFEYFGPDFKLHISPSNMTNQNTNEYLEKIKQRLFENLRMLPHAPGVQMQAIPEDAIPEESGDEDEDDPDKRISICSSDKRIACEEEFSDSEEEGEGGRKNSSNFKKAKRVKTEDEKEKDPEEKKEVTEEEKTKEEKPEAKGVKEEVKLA
Target sequence in this assay (Q9UK73 whole entry, looked up): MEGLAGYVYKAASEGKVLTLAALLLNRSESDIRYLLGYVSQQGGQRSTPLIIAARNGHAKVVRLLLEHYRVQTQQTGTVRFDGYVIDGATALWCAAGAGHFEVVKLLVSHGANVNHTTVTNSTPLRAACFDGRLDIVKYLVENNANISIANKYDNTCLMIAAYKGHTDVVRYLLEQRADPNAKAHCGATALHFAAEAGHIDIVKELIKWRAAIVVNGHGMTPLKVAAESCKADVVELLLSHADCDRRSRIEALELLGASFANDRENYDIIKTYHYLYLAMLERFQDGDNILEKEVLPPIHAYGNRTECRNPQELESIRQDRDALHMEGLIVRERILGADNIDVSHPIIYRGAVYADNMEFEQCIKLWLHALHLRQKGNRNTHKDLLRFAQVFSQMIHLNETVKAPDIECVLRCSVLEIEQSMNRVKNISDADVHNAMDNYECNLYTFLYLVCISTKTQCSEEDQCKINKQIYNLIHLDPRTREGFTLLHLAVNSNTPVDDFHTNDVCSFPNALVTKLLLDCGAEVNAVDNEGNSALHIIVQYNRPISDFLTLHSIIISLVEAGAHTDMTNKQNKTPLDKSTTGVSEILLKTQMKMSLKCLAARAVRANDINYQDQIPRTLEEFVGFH

[11] = target: T1, Protein fem-1 homolog B/Histone deacetylase 1; assay: PROTAC activity at FEM1B/HDAC1 in human MM1.S cell lysate assessed as initial degradation measured after 24 hrs by Western immunoassay; format: subcellular
Target sequence in this assay (Q13547 whole entry): as the sequence (Q13547 whole entry, looked up) above
Target sequence in this assay (Q9UK73 whole entry): as the sequence (Q9UK73 whole entry, looked up) above

[12] = target: T1, Protein fem-1 homolog B/Histone deacetylase 1; assay: PROTAC activity at FEM1B/HDAC1 in human MM.1S cell lysate assessed as maximal initial degradation at measured after 24 hrs by Western immunoassay relative to control; format: subcellular; details: MM1.S
Target sequence in this assay (Q13547 whole entry, looked up): as the sequence (Q13547 whole entry, looked up) above
Target sequence in this assay (Q9UK73 whole entry, looked up): as the sequence (Q9UK73 whole entry, looked up) above

Histone deacetylase 1 = Histone deacetylase 1 (Homo sapiens, UniProt Q13547); assay: Inhibition of human recombinant HDAC1 using ZMAL (Z-(Ac)Lys-AMC) as substrate incubated for 90 mins by fluorescence based assay
Histone deacetylase 2 = Histone deacetylase 2 (Homo sapiens, UniProt Q92769); assay: Inhibition of human HDAC2 using ZMAL (Z-(Ac)Lys-AMC) as substrate incubated for 90 mins by fluorescence based assay
Histone deacetylase 4 = Histone deacetylase 4 (Homo sapiens, UniProt P56524); assay: Inhibition of human HDAC4 using Boc-Lys(Tfa)-AMC as substrate incubated for 90 mins by fluorescence based assay; details: read-out: IC50
[13] = target: T2, Protein deacetylase HDAC6 (Homo sapiens, UniProt Q9UBN7); assay: Inhibition of human HDAC6 using ZMAL (Z-(Ac)Lys-AMC) as substrate incubated for 90 mins by fluorescence based assay
T2 sequence (Q9UBN7 whole entry): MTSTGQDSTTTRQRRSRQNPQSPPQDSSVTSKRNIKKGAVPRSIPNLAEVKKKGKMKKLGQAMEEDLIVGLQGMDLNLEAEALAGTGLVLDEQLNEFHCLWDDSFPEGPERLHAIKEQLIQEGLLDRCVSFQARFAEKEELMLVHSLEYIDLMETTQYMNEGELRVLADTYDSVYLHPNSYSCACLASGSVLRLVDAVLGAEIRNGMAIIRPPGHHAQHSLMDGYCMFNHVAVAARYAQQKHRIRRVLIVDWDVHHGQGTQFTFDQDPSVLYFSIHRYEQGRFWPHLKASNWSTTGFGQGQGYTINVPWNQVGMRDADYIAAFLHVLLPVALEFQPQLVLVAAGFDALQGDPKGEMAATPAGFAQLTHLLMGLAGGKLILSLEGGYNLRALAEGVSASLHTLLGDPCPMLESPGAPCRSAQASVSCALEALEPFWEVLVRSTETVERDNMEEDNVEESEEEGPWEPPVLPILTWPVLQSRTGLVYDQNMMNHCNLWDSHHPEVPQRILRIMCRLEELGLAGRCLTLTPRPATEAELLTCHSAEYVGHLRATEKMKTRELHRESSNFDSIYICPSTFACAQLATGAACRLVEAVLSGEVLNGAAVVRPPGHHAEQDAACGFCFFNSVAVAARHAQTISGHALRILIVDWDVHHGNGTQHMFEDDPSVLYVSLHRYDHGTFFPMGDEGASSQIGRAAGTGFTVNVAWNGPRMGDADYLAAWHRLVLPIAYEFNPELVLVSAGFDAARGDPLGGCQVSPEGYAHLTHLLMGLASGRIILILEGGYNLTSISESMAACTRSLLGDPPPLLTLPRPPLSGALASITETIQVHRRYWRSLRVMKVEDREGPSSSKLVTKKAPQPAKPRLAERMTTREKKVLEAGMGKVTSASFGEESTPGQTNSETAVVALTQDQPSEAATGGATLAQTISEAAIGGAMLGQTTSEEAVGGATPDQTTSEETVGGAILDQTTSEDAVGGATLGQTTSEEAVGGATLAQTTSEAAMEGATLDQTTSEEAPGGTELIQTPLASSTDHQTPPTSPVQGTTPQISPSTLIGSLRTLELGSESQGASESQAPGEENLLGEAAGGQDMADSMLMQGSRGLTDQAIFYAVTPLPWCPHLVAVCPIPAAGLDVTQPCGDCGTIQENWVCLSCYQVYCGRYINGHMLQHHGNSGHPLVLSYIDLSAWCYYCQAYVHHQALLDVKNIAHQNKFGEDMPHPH

[14] = target: T1, Protein fem-1 homolog B/Histone deacetylase 1; assay: PROTAC activity at FEM1B/HDAC1 in human MM1.S cell lysate assessed as protein degradation at 1 uM measured after 24 hrs by Western immunoassay; format: subcellular
Target sequence in this assay (Q13547 whole entry, looked up): as the sequence (Q13547 whole entry, looked up) above
Target sequence in this assay (Q9UK73 whole entry, looked up): as the sequence (Q9UK73 whole entry, looked up) above

[15] = target: Protein fem-1 homolog B/Histone deacetylase 2 (Homo sapiens) (UniProt Q92769+Q9UK73); assay: PROTAC activity at FEM1B/HDAC2 in human MM1.S cell lysate assessed as protein degradation at 1 uM measured after 24 hrs by Western immunoassay; format: subcellular
[16] = target: Protein fem-1 homolog B/Histone deacetylase 3 (Homo sapiens) (UniProt O15379+Q9UK73); assay: PROTAC activity at FEM1B/HDAC3 in human MM1.S cell lysate assessed as protein degradation at 1 uM measured after 24 hrs by Western immunoassay; format: subcellular
[17] = target: Protein fem-1 homolog B/Protein deacetylase HDAC6 (Homo sapiens) (UniProt Q9UBN7+Q9UK73); assay: PROTAC activity at FEM1B/HDAC6 in human MM1.S cell lysate assessed as protein degradation at 1 uM measured after 24 hrs by Western immunoassay; format: subcellular
[18] = target: Protein fem-1 homolog B/Histone deacetylase 4 (Homo sapiens) (UniProt P56524+Q9UK73); assay: PROTAC activity at FEM1B/HDAC4 in human MM1.S cell lysate assessed as protein degradation at 1 uM measured after 24 hrs by Western immunoassay; format: subcellular
[19] = target: Protein fem-1 homolog B/Histone deacetylase 8 (Homo sapiens) (UniProt Q9BY41+Q9UK73); assay: PROTAC activity at FEM1B/HDAC8 in human MM1.S cell lysate assessed as protein degradation at 1 uM measured after 24 hrs by Western immunoassay; format: subcellular
MM1.S [20] = assay: Antiproliferative activity against human MM1.S cells assessed as cell viability measured after 72 hrs incubation by MTT assay; format: functional, cell-based
MDA-MB-231 [21] = assay: Antiproliferative activity against human MDA-MB-231 cells assessed as cell viability measured after 72 hrs incubation by MTT assay; format: functional, cell-based; details: MDA-MB-231, 72 h
U-87 MG [22] = assay: Antiproliferative activity against human U-87 MG cells assessed as cell viability measured after 72 hrs incubation by MTT assay; format: functional, cell-based, U-87MG ATCC

Sequence of Histone deacetylase 1 (Q13547 whole entry): as the sequence (Q13547 whole entry, looked up) above
Sequence of Histone deacetylase 4 (P56524 whole entry): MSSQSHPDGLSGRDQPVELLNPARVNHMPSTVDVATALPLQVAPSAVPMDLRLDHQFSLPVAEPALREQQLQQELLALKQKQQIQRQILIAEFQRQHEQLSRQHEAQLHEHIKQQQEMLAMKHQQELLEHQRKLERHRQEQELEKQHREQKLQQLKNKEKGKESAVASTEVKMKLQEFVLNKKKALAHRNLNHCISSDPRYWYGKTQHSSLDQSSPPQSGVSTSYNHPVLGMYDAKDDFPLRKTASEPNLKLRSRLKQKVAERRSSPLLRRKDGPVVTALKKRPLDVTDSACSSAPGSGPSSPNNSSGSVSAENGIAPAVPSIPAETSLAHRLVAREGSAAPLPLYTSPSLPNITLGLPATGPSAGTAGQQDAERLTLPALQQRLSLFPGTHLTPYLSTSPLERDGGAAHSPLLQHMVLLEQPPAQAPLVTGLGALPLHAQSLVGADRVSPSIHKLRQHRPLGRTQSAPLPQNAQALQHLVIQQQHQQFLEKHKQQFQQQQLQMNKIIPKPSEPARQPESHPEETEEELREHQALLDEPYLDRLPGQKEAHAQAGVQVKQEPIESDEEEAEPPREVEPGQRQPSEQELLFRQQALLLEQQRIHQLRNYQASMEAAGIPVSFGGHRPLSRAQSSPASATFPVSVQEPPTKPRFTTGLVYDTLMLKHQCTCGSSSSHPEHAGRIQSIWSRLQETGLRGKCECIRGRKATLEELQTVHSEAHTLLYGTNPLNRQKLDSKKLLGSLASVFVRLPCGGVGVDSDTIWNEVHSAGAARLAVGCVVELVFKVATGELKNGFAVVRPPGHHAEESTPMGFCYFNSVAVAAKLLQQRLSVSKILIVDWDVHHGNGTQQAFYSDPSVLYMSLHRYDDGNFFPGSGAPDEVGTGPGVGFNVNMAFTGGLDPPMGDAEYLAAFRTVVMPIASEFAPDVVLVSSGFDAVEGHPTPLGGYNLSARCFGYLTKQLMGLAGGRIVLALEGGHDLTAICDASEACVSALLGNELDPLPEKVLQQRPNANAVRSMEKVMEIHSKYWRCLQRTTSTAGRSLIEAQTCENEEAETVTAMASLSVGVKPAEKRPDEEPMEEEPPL
Sequence of Histone deacetylase 2 (Q92769 whole entry): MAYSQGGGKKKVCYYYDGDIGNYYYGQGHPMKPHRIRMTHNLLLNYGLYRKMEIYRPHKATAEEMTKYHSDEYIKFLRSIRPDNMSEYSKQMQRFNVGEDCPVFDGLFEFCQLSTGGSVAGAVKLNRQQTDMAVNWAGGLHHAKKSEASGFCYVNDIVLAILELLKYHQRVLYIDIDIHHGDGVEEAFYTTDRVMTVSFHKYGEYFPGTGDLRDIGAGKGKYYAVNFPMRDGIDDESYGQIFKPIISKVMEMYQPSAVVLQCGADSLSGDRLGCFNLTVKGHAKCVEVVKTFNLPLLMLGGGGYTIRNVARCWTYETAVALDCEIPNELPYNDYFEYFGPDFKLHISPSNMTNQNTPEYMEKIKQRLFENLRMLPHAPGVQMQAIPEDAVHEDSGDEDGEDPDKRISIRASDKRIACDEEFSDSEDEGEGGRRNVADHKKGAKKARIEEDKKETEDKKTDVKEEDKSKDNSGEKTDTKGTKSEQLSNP
Sequence of Protein fem-1 homolog B/Histone deacetylase 8 (Homo sapiens) (Q9BY41 whole entry, looked up): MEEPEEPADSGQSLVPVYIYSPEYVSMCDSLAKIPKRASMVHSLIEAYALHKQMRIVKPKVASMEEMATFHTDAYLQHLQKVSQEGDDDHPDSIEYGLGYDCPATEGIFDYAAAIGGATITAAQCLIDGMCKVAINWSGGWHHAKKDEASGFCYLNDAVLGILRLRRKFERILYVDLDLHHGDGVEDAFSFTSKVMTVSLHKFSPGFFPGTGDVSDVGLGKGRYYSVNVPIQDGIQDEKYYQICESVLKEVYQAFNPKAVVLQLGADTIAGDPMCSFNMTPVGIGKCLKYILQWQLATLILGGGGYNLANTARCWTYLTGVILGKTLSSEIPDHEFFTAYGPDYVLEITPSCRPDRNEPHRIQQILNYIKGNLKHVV
Sequence of Protein fem-1 homolog B/Histone deacetylase 8 (Homo sapiens) (Q9UK73 whole entry, looked up): as the sequence (Q9UK73 whole entry, looked up) above
Sequence of Protein fem-1 homolog B/Protein deacetylase HDAC6 (Homo sapiens) (Q9UK73 whole entry, looked up, one chain of several): as the sequence (Q9UK73 whole entry, looked up) above
Sequence of Protein fem-1 homolog B/Histone deacetylase 4 (Homo sapiens) (P56524 whole entry, looked up): as the sequence (P56524 whole entry) above
Sequence of Protein fem-1 homolog B/Histone deacetylase 4 (Homo sapiens) (Q9UK73 whole entry, looked up): as the sequence (Q9UK73 whole entry, looked up) above
Sequence of Protein fem-1 homolog B/Histone deacetylase 2 (Homo sapiens) (Q92769 whole entry, looked up): as the sequence (Q92769 whole entry) above
Sequence of Protein fem-1 homolog B/Histone deacetylase 2 (Homo sapiens) (Q9UK73 whole entry, looked up): as the sequence (Q9UK73 whole entry, looked up) above
Sequence of Protein fem-1 homolog B/Histone deacetylase 3 (Homo sapiens) (O15379 whole entry, looked up): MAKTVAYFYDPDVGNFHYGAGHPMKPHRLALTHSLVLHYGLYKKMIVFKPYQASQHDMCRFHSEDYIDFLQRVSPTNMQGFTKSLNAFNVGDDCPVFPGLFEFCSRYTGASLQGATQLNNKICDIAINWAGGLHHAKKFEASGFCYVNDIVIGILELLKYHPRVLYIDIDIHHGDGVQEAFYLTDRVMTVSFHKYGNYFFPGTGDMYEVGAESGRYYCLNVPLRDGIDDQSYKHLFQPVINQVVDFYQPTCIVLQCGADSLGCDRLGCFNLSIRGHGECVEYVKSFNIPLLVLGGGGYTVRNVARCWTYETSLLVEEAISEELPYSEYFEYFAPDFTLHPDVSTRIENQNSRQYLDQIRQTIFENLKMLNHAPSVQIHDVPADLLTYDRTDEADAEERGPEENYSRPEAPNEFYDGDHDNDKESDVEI
Sequence of Protein fem-1 homolog B/Histone deacetylase 3 (Homo sapiens) (Q9UK73 whole entry, looked up): as the sequence (Q9UK73 whole entry, looked up) above

With `O=C(CCCCCCNC(=O)c1ccc(NC(=O)CCCCCCCNC(=O)COc2cccc3c2C(=O)N(C2CCC(=O)NC2=O)C3=O)cc1)NO` (centres undefined) the Activity (MM1.S [1]) was “inactive”, the EC50 (MV4-11) was 17500 nM and the Activity (MDA-MB-231 [2]) was “<=25%”. The Activity (U-87 MG [3]) was “<=25%”, the Activity (MM1.S [4]) was “inactive” and the Activity (MM1.S [5]) was “inactive”. The Activity (MM1.S [6]) was “inactive”, the Activity (MM1.S [7]) was “inactive” and the Activity (MM1.S [8]) was “<=25%”.
With `N#CCCN(C(=O)CCl)c1ccc2c(c1)OCCN2CC(=O)NCCOCCOCCOCCOCCC(=O)Nc1ccc(C(=O)NCCCCCCC(=O)NO)cc1` the EC50 (MM1.S [9]; Homo sapiens, MM1.S, 72 h) was 42300 nM.
For `N#CCCN(C(=O)CCl)c1ccc2c(c1)OCCN2CC(=O)NCCOCCOCCOCCC(=O)Nc1ccc(C(=O)NCCCCCCC(=O)NO)cc1`, the EC50 (MM1.S [9]; Homo sapiens, MM1.S, 72 h) was 35200 nM.
`N#CCCN(C(=O)CCl)c1ccc2c(c1)OCCN2CC(=O)NCCCCCCCC(=O)Nc1ccc(C(=O)NCCCCCCC(=O)NO)cc1` was tested, and the EC50 (MM1.S [9]; Homo sapiens, MM1.S, 72 h) was 2280 nM, the Activity [10] was 52.8% and the DC50 [11] was 228 nM. It also gave an Emax [12] of 67.4%, an IC50 (Histone deacetylase 1) of 70 nM and an IC50 (Histone deacetylase 2) of 143 nM. The IC50 (Histone deacetylase 4) was 3620 nM, the IC50 [13] was 4 nM and the Activity [14] was “Active”. The Activity [15] was “Active”, the Activity [16] was “Active” and the Activity [17] was “inactive”. The Activity [18] was “inactive”, the Activity [19] was “inactive” and the EC50 (MM1.S [20]) was 2280 nM. The EC50 (MV4-11) was 358 nM, the EC50 (MDA-MB-231 [21]) was 23300 nM and the EC50 (U-87 MG [22]) was 49700 nM. For the same molecule, the Activity (MM1.S [4]) was “Active”, the Activity (MM1.S [5]) was “Active” and the Activity (MM1.S [6]) was “Active”. For the same molecule, the Activity (MM1.S [7]) was “Active”.
`N#CCCN(C(=O)CCl)c1ccc2c(c1)OCCN2CC(=O)NCC(=O)Nc1ccc(C(=O)NCCCCCCC(=O)NO)cc1` gave an EC50 (MM1.S [9]; mm1.s) of 2330 nM, a DC50 [11] of 257 nM and an IC50 (Histone deacetylase 1) of 74 nM. For the same molecule, the IC50 (Histone deacetylase 2) was 156 nM, the IC50 (Histone deacetylase 4) was 13300 nM and the IC50 [13] was 9 nM. It also gave an EC50 (MV4-11) of 958 nM, an EC50 (MDA-MB-231 [21]) of 26500 nM and an EC50 (U-87 MG [22]) of 37400 nM.
With `N#CCCN(C(=O)CCl)c1ccc2c(c1)OCCN2CC(=O)NCCOCCOCCC(=O)Nc1ccc(C(=O)NCCCCCCC(=O)NO)cc1` the EC50 (MM1.S [9]; Homo sapiens, MM1.S, 72 h) was 26700 nM.
Work on `N#CCCN(C(=O)CCl)c1ccc2c(c1)OCCN2CC(=O)NCCCC(=O)Nc1ccc(C(=O)NCCCCCCC(=O)NO)cc1` yielded an EC50 (MM1.S [9]; Homo sapiens, MM1.S, 72 h) of 10300 nM.
